Measured values as given in patent US11214803B2, “Modulators of YAP1 expression” (Ionis Pharmaceuticals, Inc., priority 2019, dated 2022).
Marks after values point to notes of the source that are not given here. Strand notation (5' to 3'): a small letter for the sugar, then the base; units joined by * are phosphorothioate-linked, units joined directly phosphodiester-linked; [ ] holds rarer units or linkages, { } end groups; capitals alone tell only the bases. k = constrained ethyl (cEt); [5mC] = 5-methylcytosine; d = 2'-deoxy (DNA)

Tested on: Yap1 mRNA
Assay: Antisense inhibition of human Yap1 in A-431 cells by cEt gapmers, single dose (Example 4, RTS4814)
Type: cell-based
Conditions: Table 14; A-431 cells, 5,000 cells per well, free uptake, 2,000 nM, approximately 48 hours; RTS4814; normalized to RIBOGREEN; Yap1 mRNA relative to untreated control; * = targets amplicon region of primer probe set
How it was run: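 A-431 cells took up 3-10-3 cEt gapmers (16-mer, full phosphorothioate, 5-methylcytosines) by free uptake at 2,000 nM for about 48 h. Yap1 mRNA was quantified by qRT-PCR, normalized to total RNA (RIBOGREEN), and reported as % of untreated control.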

Substance	YAP1 (% UTC)
1075360 (kA*kG*kG*d[5mC]*dA*dA*d[5mC]*dA*dA*d[5mC]*dA*dT*d[5mC]*kT*kA*kA; antisense) [Compound 1075360]	50
1075520 (k[5mC]*k[5mC]*k[5mC]*d[5mC]*dA*dA*d[5mC]*dA*dA*d[5mC]*dT*dG*d[5mC]*kT*kA*kA; antisense) [Compound 1075520]	77
1076352 (kG*kA*kT*dA*dA*d[5mC]*d[5mC]*d[5mC]*dT*dG*dA*dA*dA*k[5mC]*kA*kA; antisense) [Compound 1076352]	37
1075552 (kG*kA*kT*dT*dA*dT*dA*dA*d[5mC]*dA*dT*dG*d[5mC]*kT*kG*kT; antisense) [Compound 1075552]	74
1075584 (kA*kA*kT*dA*dA*dT*dT*dG*dA*d[5mC]*d[5mC]*dT*dA*kG*k[5mC]*kA; antisense) [Compound 1075584]	57
1074784 (k[5mC]*k[5mC]*kA*dT*dA*dA*dG*dT*dA*dG*dA*dT*d[5mC]*kT*kA*kA; antisense) [Compound 1074784]	25
1075168 (antisense k[5mC]*kA*kT*d[5mC]*dA*dA*dA*dA*dT*dT*dT*d[5mC]*dA*k[5mC]*kG*kA) [Compound 1075168]	49

Same assay, conditions: Table 15; A-431 cells, 5,000 cells per well, free uptake, 2,000 nM, approximately 48 hours; RTS4814; normalized to RIBOGREEN; Yap1 mRNA relative to untreated control; * = targets amplicon region of primer probe set

Substance	YAP1 (% UTC)
1075809 (kT*kA*kG*d[5mC]*dA*dA*dT*dA*dG*dA*dG*dT*dA*kA*k[5mC]*k[5mC]; antisense) [Compound 1075809]	13
1074817 (k[5mC]*kT*kG*dA*dA*dT*dA*dT*dT*dG*d[5mC]*d[5mC]*dA*k[5mC]*k[5mC]*k[5mC]; antisense) [Compound 1074817]	8
1074977 (antisense k[5mC]*kT*kT*dG*dT*dT*d[5mC]*dT*dA*dT*dT*dG*dG*kA*kA*kG) [Compound 1074977]	94
1075553 (kT*kG*kA*dT*dT*dA*dT*dA*dA*d[5mC]*dA*dT*dG*k[5mC]*kT*kG; antisense) [Compound 1075553]	77
1076001 (kA*k[5mC]*kT*d[5mC]*dA*dA*dG*dG*dA*dA*d[5mC]*d[5mC]*dA*kT*kT*kT; antisense) [Compound 1076001]	24

Same assay, conditions: Table 16; A-431 cells, 5,000 cells per well, free uptake, 2,000 nM, approximately 48 hours; RTS4814; normalized to RIBOGREEN; Yap1 mRNA relative to untreated control cells

Substance	YAP1 (% UTC)
1076098 (kT*kT*kA*d[5mC]*dA*dA*dT*dA*dA*dT*dA*dA*dA*k[5mC]*kG*kA; antisense) [Compound 1076098]	94
1074498 (kA*k[5mC]*kA*dA*dT*dA*dA*d[5mC]*d[5mC]*dA*dT*d[5mC]*d[5mC]*k[5mC]*kA*kA; antisense) [Compound 1074498]	17
1074850 (antisense kT*kT*kG*dT*dT*dA*dT*dG*dA*dT*dA*dG*dG*k[5mC]*kA*k[5mC]) [Compound 1074850]	5
1074146 (antisense kG*kA*kA*dG*d[5mC]*dG*dG*d[5mC]*dG*dA*d[5mC]*dG*dG*k[5mC]*kT*kG) [Compound 1074146]	91
1075010 (antisense kA*kA*kT*dA*dA*dT*d[5mC]*dG*dA*dA*d[5mC]*dA*dT*kT*kG*kT) [Compound 1075010]	88
1074978 (antisense kT*kT*kG*d[5mC]*d[5mC]*dA*dG*dT*dT*d[5mC]*dT*dT*dG*kT*kT*k[5mC]) [Compound 1074978]	38
1075170 (antisense kA*k[5mC]*kT*dA*dA*dA*dA*dT*d[5mC]*d[5mC]*d[5mC]*d[5mC]*dA*kA*kG*kG) [Compound 1075170]	94
1074722 (antisense kA*kG*kG*dA*dA*dG*dA*dT*d[5mC]*dT*d[5mC]*d[5mC]*dA*kT*kA*kT) [Compound 1074722]	57

Same assay, conditions: Table 17; A-431 cells, 5,000 cells per well, free uptake, 2,000 nM, approximately 48 hours; RTS4814; normalized to RIBOGREEN; Yap1 mRNA relative to untreated control cells

Substance	YAP1 (% UTC)
1075043 (antisense k[5mC]*k[5mC]*k[5mC]*d[5mC]*dA*dA*dA*dA*dG*d[5mC]*d[5mC]*d[5mC]*dT*kA*k[5mC]*kT) [Compound 1075043]	73 % UTC
1075363 (kA*k[5mC]*kA*d[5mC]*dA*dA*dT*dA*dT*d[5mC]*dA*dA*dG*kT*k[5mC]*k[5mC]; antisense) [Compound 1075363]	25 % UTC
1076419 (kA*kT*kA*dT*dA*dA*dT*dA*dA*d[5mC]*d[5mC]*d[5mC]*dA*kT*kT*kG; antisense) [Compound 1076419]	47 % UTC
1075811 (kA*kT*kT*dG*dT*dA*dG*d[5mC]*dA*dA*dT*dA*dG*kA*kG*kT; antisense) [Compound 1075811]	10 % UTC
1076131 (kT*kA*kT*dT*dA*dT*dG*dA*dG*dG*dA*d[5mC]*dT*kG*kA*kT; antisense) [Compound 1076131]	23 % UTC
1075107 (antisense kT*kA*kA*dA*dA*dA*d[5mC]*dA*dT*dT*dG*dT*dG*kG*k[5mC]*k[5mC]) [Compound 1075107]	114 % UTC
1074435 (kG*kA*k[5mC]*dT*dT*d[5mC]*dT*dA*dA*dG*dT*d[5mC]*dT*kG*kA*kG; antisense) [Compound 1074435]	19* % UTC
1076323 (k[5mC]*kA*kA*dT*dT*dT*dA*d[5mC]*dA*dA*dG*dT*dG*kA*kG*k[5mC]; antisense) [Compound 1076323]	5 % UTC

Same assay, conditions: Yap1 mRNA remaining as percent of untreated control; 3-10-3 cEt gapmers; A-431 cells; Table 36

Substance	YAP1 (% UTC)
1075286 (antisense kA*kT*kT*dA*d[5mC]*dG*dG*dA*d[5mC]*dA*dG*dA*dA*kG*kT*kG) [compound 1075286]	48
1075574 (antisense kA*kG*kT*d[5mC]*dA*dA*dG*dG*dA*dA*d[5mC]*d[5mC]*dT*kT*k[5mC]*kT) [compound 1075574]	47
1074134 (k[5mC]*kG*k[5mC]*dG*dG*d[5mC]*d[5mC]*d[5mC]*d[5mC]*dG*d[5mC]*dA*dT*k[5mC]*k[5mC]*k[5mC]; antisense) [compound 1074134]	79
1076054 (k[5mC]*kA*kT*dT*dA*dG*dA*d[5mC]*dT*dT*dT*d[5mC]*dT*kG*kT*k[5mC]; antisense) [compound 1076054]	21
1075958 (k[5mC]*kA*kT*dT*dA*dT*dG*dA*d[5mC]*dA*dT*dT*d[5mC]*k[5mC]*k[5mC]*k[5mC]; antisense) [compound 1075958]	12
1075734 (kA*kG*kG*d[5mC]*dA*dA*dT*dA*dA*d[5mC]*d[5mC]*dT*d[5mC]*kG*kA*kG; antisense) [compound 1075734]	26
1075190 (kT*kA*kT*d[5mC]*dA*dA*dG*dG*dA*dT*dT*d[5mC]*dA*kG*kT*kA; antisense) [compound 1075190]	45

Same assay, conditions: Yap1 mRNA remaining as percent of untreated control; 3-10-3 cEt gapmers; A-431 cells; Table 37

Substance	YAP1 (% UTC)
1075735 (kG*kA*kA*dT*d[5mC]*dG*dA*dT*dG*dT*dG*dT*dT*kG*k[5mC]*kG; antisense) [compound 1075735]	17 % UTC
1074423 (k[5mC]*kA*kA*dA*d[5mC]*dA*dG*dG*d[5mC]*dT*d[5mC]*dA*d[5mC]*kT*kT*k[5mC]; antisense) [compound 1074423]	4* % UTC
1075127 (kG*k[5mC]*kT*dA*dA*dA*dT*dT*dA*dT*dG*d[5mC]*dT*kA*kT*kT; antisense) [compound 1075127]	79 % UTC
1074647 (antisense k[5mC]*kA*kA*dA*dT*dT*dG*dA*dA*dG*dG*dG*d[5mC]*k[5mC]*kA*kA) [compound 1074647]	27 % UTC
